Measured values taken from patent US20240100170A1, “CYCLIC-AMP RESPONSE ELEMENT BINDING PROTEIN (CBP) AND/OR ADENOVIRAL E1A BINDING PROTEIN OF 300 KDA (P300) DEGRADATION COMPOUNDS AND METHODS OF USE” (CULLGEN (SHANGHAI), INC., priority 2020, published 2024).
pIC50: −log10 of the molar value.

test system: LNCaP prostate cancer cell; assay: LNCaP cell viability (CellTiter-Glo); type: cell-based; conditions: 3 days, 3-fold serial dilution from 10 μM; FIG. 4
Method: LNCaP cells seeded in 96-well plates were treated with 10 μM GNE-781 or selected bivalent compounds, i.e. P-001, P-002, and P-019, following a 12-point 3-fold serial dilution. Three days after treatment, cell viability was determined using the CellTiter-Glo kit (Promega) following manufacturer's instructions. Cell viability was normalized to the mean values of 3 replicates of untreated cells. Dose-dependent response was analyzed following the least-squares non-linear regression method using the GraphPad Prism 5.0 software.
LNCaP (clone FGC), 22RV1 and other cells were cultured at 37° C. with 5% CO 2 in RPMI 1640 Medium supplemented with 10% fetal bovine serum. Cells were authenticated using the short tandem repeat (STR) assays. Mycoplasma test results were negative.
Cells were seeded at a density of 5000 cells per well in 96-well assay plates and treated with test compounds following a 12-point 3-fold serial dilution. Three days later, cell viability was determined using the CellTiter-Glo assay kit according to the manufactureR's instructions. The dose-response curves were determined and IC50 values were calculated using the GraphPad Prism software following a nonlinear regression (least squares fit) method.

**Q.** For `CNC(=O)N1CCc2c(c(N3CCCc4cc(-c5cnn(C)c5)c(C(F)F)cc43)nn2C2CCN(C(=O)CNc3ccc4c(c3)C(=O)N(C3CCC(=O)NC3=O)C4=O)CC2)C1` (stereo not drawn) [P-001, 3-(7-(difluoromethyl)-6-(1-methyl-1H-pyrazol-4-yl)-3,4-dihydroquinolin-1(2H)-yl)-1-(1-((2-(2,6-dioxopiperidin-3-yl)-1,3-dioxoisoindolin-5-yl)glycyl)piperidin-4-yl)-N-methyl-1,4,6,7-tetrahydro-5H-pyrazolo[4,3-c]pyridine-5-carboxamide], which “viability of LNCaP cells” value is on record?
**A.** dose-dependently suppressed viability of LNCaP cells

**Q.** How did the “viability of LNCaP cells” value turn out when `CNC(=O)N1CCc2c(c(N3CCCc4cc(-c5cnn(C)c5)c(C(F)F)cc43)nn2C2CCN(C(=O)CCNc3ccc4c(c3)C(=O)N(C3CCC(=O)NC3=O)C4=O)CC2)C1` (stereo not drawn) [P-002, 3-(7-(difluoromethyl)-6-(1-methyl-1H-pyrazol-4-yl)-3,4-dihydroquinolin-1(2H)-yl)-1-(1-(3-((2-(2,6-dioxopiperidin-3-yl)-1,3-dioxoisoindolin-5-yl)amino)propanoyl)piperidin-4-yl)-N-methyl-1,4,6,7-tetrahydro-5H-pyrazolo[4,3-c]pyridine-5-carboxamide] was run?
**A.** dose-dependently suppressed viability of LNCaP cells

**Q.** Which “viability of LNCaP cells” value does the source give for `CNC(=O)N1CCc2c(c(N3CCCc4cc(-c5cnn(CC(=O)NCCCCCNc6ccc7c(c6)C(=O)N(C6CCC(=O)NC6=O)C7=O)c5)c(C(F)F)cc43)nn2C2CCOCC2)C1` (stereo not drawn) [P-019, 3-(7-(difluoromethyl)-6-(1-(2-((5-((2-(2,6-dioxopiperidin-3-yl)-1,3-dioxoisoindolin-5-yl)amino)pentyl)amino)-2-oxoethyl)-1H-pyrazol-4-yl)-3,4-dihydroquinolin-1(2H)-yl)-N-methyl-1-(tetrahydro-2H-pyran-4-yl)-1,4,6,7-tetrahydro-5H-pyrazolo[4,3-c]pyridine-5-carboxamide] here?
**A.** dose-dependently suppressed viability of LNCaP cells

same assay, conditions: Homo sapiens, 72 h; LNCaP cell viability, 3 days, CellTiter-Glo; Table 2

**Q.** `CNC(=O)N1CCc2c(c(N3CCCc4cc(-c5cnn(CC(=O)NCCCCCCCCCC(=O)NC(C(=O)N6C[C@H](O)CC6C(=O)NCc6ccc(-c7scnc7C)cc6)C(C)(C)C)c5)c(C(F)F)cc43)nn2C2CCOCC2)C1` (stereo in doubt) [P-049, 3-(7-(difluoromethyl)-6-(1-(2-((10-(((S)-1-((2S,4R)-4-hydroxy-2-((4-(4-methylthiazol-5-yl)benzyl)carbamoyl)pyrrolidin-1-yl)-3,3-dimethyl-1-oxobutan-2-yl)amino)-10-oxodecyl)amino)-2-oxoethyl)-1H-pyrazol-4-yl)-3,4-dihydroquinolin-1(2H)-yl)-N-methyl-1-(tetrahydro-2H-pyran-4-yl)-1,4,6,7-tetrahydro-5H-pyrazolo[4,3-c]pyridine-5-carboxamide] was tested. Which pIC50 did it give?
**A.** 6.63

**Q.** `CNC(=O)N1CCc2c(c(N3CCCc4cc(-c5cnn(CC(=O)NCCCCCCCCCCC(=O)N[C@H](C(=O)N6CC(O)C[C@H]6C(=O)NCc6ccc(-c7scnc7C)cc6)C(C)(C)C)c5)c(C(F)F)cc43)nn2C2CCOCC2)C1` (stereo in doubt) [P-050, 3-(7-(difluoromethyl)-6-(1-(2-((11-(((S)-1-((2S,4R)-4-hydroxy-2-((4-(4-methylthiazol-5-yl)benzyl)carbamoyl)pyrrolidin-1-yl)-3,3-dimethyl-1-oxobutan-2-yl)amino)-11-oxoundecyl)amino)-2-oxoethyl)-1H-pyrazol-4-yl)-3,4-dihydroquinolin-1(2H)-yl)-N-methyl-1-(tetrahydro-2H-pyran-4-yl)-1,4,6,7-tetrahydro-5H-pyrazolo[4,3-c]pyridine-5-carboxamide] was tested. Which pIC50 did it give?
**A.** 6.95

same assay, conditions: Homo sapiens, 72 h; LNCaP cell viability, 3 days, CellTiter-Glo; Table 3

**Q.** With `CNC(=O)N1CCc2c(c(N3CCCc4cc(-c5cnn(CC(=O)NCCOCCOCCOCCOCCOCCC(=O)N[C@H](C(=O)N6C[C@H](O)C[C@H]6C(=O)NCc6ccc(-c7scnc7C)cc6)C(C)(C)C)c5)c(C(F)F)cc43)nn2C2CCOCC2)C1` [P-082] as the compound, how does the pIC50 read?
**A.** < 5.00

**Q.** How did the pIC50 turn out when `CNC(=O)N1CCc2c(c(N3CCCc4cc(-c5cnn(CC(=O)NCCOCCOCC(=O)N[C@H](C(=O)N6C[C@H](O)C[C@H]6C(=O)NCc6ccc(-c7scnc7C)cc6)C(C)(C)C)c5)c(C(F)F)cc43)nn2C2CCOCC2)C1` [P-083, 3-(7-(difluoromethyl)-6-(1-((S)-13-((2S,4R)-4-hydroxy-2-((4-(4-methylthiazol-5-yl)benzyl)carbamoyl)pyrrolidine-1-carbonyl)-14,14-dimethyl-2,11-dioxo-6,9-dioxa-3,12-diazapentadecyl)-1H-pyrazol-4-yl)-3,4-dihydroquinolin-1(2H)-yl)-N-methyl-1-(tetrahydro-2H-pyran-4-yl)-1,4,6,7-tetrahydro-5H-pyrazolo[4,3-c]pyridine-5-carboxamide] was run?
**A.** < 5.00

**Q.** How did the pIC50 turn out when `CC(=O)N1CCc2c(c(N3CCCc4cc(-c5cnn(C)c5)c(C(F)F)cc43)nn2C2CCN(CCCNC(=O)CNc3cccc4c3C(=O)N(C3CCC(=O)NC3=O)C4=O)CC2)C1` (stereo not drawn) [P-124, N-(3-(4-(5-acetyl-3-(7-(difluoromethyl)-6-(1-methyl-1H-pyrazol-4-yl)-3,4-dihydroquinolin-1(2H)-yl)-4,5,6,7-tetrahydro-1H-pyrazolo[4,3-c]pyridin-1-yl)piperidin-1-yl)propyl)-2-((2-(2,6-dioxopiperidin-3-yl)-1,3-dioxoisoindolin-4-yl)amino)acetamide] was run?
**A.** < 6.00

same assay, conditions: Homo sapiens, 72 h; LNCaP cell viability, 3 days, CellTiter-Glo; Table 4

**Q.** `CC(=O)N1CCc2c(c(N3CCCc4cc(-c5cnn(C)c5)c(C(F)F)cc43)nn2C2CCN(CCN3CCNC(COc4cccc5c4C(=O)N(C4CCC(=O)NC4=O)C5=O)C3)CC2)C1` (stereo not drawn) [P-197, 4-((4-(2-(4-(5-acetyl-3-(7-(difluoromethyl)-6-(1-methyl-1H-pyrazol-4-yl)-3,4-dihydroquinolin-1(2H)-yl)-4,5,6,7-tetrahydro-1H-pyrazolo[4,3-c]pyridin-1-yl)piperidin-1-yl)ethyl)piperazin-2-yl)methoxy)-2-(2,6-dioxopiperidin-3-yl)isoindoline-1,3-dione] was tested. Which pIC50 did it give?
**A.** < 6.30

**Q.** `CC(=O)N1CCc2c(c(N3CCCc4cc(-c5cnn(C)c5)c(C(F)F)cc43)nn2C2CCN(CCN3CCOC(CNc4cccc5c4CN(C4CCC(=O)NC4=O)C5=O)C3)CC2)C1` (stereo not drawn) [P-199, 3-(4-(((4-(2-(4-(5-acetyl-3-(7-(difluoromethyl)-6-(1-methyl-1H-pyrazol-4-yl)-3,4-dihydroquinolin-1(2H)-yl)-4,5,6,7-tetrahydro-1H-pyrazolo[4,3-c]pyridin-1-yl)piperidin-1-yl)ethyl)morpholin-2-yl)methyl)amino)-1-oxoisoindolin-2-yl)piperidine-2,6-dione] was tested. Which pIC50 did it give?
**A.** < 6.30

**Q.** How did the pIC50 turn out when `CC(=O)N1CCc2c(c(N3CCCc4cc(-c5cnn(C)c5)c(C(F)F)cc43)nn2C2CCN(C(=O)CCN3CCC(COc4ccc5c(c4)n(C)c(=O)n5C4CCC(=O)NC4=O)CC3)CC2)C1` (stereo not drawn) [P-203, 3-(5-((1-(3-(4-(5-acetyl-3-(7-(difluoromethyl)-6-(1-methyl-1H-pyrazol-4-yl)-3,4-dihydroquinolin-1(2H)-yl)-4,5,6,7-tetrahydro-1H-pyrazolo[4,3-c]pyridin-1-yl)piperidin-1-yl)-3-oxopropyl)piperidin-4-yl)methoxy)-3-methyl-2-oxo-2,3-dihydro-1H-benzo[d]imidazol-1-yl)piperidine-2,6-dione] was run?
**A.** < 6.30

**Q.** With `CC(=O)N1CCc2c(c(N3CCCc4cc(-c5cnn(C)c5)c(C(F)F)cc43)nn2C2CCN(C(=O)CCCN3CCC(Cn4c(=O)n(C5CCC(=O)NC5=O)c5ccccc54)CC3)CC2)C1` (stereo not drawn) [P-204, 3-(3-((1-(4-(4-(5-acetyl-3-(7-(difluoromethyl)-6-(1-methyl-1H-pyrazol-4-yl)-3,4-dihydroquinolin-1(2H)-yl)-4,5,6,7-tetrahydro-1H-pyrazolo[4,3-c]pyridin-1-yl)piperidin-1-yl)-4-oxobutyl)piperidin-4-yl)methyl)-2-oxo-2,3-dihydro-1H-benzo[d]imidazol-1-yl)piperidine-2,6-dione] as the compound, how does the pIC50 read?
**A.** < 6.30

**Q.** With `CC(=O)N1CCc2c(c(N3CCCc4cc(-c5cnn(C)c5)c(C(F)F)cc43)nn2C2CCN(C(=O)CCCN3CCC(COc4ccc5c(c4)n(C)c(=O)n5C4CCC(=O)NC4=O)CC3)CC2)C1` (stereo not drawn) [P-206] as the compound, how does the pIC50 read?
**A.** < 6.30

**Q.** With `CC(=O)N1CCc2c(c(N3CCCc4cc(-c5cnn(C)c5)c(C(F)F)cc43)nn2C2CCN(C(=O)CCN3CCC(COc4cccc5c4n(C)c(=O)n5C4CCC(=O)NC4=O)CC3)CC2)C1` (stereo not drawn) [P-209, 3-(4-((1-(3-(4-(5-acetyl-3-(7-(difluoromethyl)-6-(1-methyl-1H-pyrazol-4-yl)-3,4-dihydroquinolin-1(2H)-yl)-4,5,6,7-tetrahydro-1H-pyrazolo[4,3-c]pyridin-1-yl)piperidin-1-yl)-3-oxopropyl)piperidin-4-yl)methoxy)-3-methyl-2-oxo-2,3-dihydro-1H-benzo[d]imidazol-1-yl)piperidine-2,6-dione] as the compound, how does the pIC50 read?
**A.** < 6.30

**Q.** `CC(=O)N1CCc2c(c(N3CCCc4cc(-c5cnn(C)c5)c(C(F)F)cc43)nn2C2CCN(C(=O)CCCN3CCC(COc4cccc5c4n(C)c(=O)n5C4CCC(=O)NC4=O)CC3)CC2)C1` (stereo not drawn) [P-210, 3-(4-((1-(4-(4-(5-Acetyl-3-(7-(difluoromethyl)-6-(1-methyl-1H-pyrazol-4-yl)-3,4-dihydroquinolin-1(2H)-yl)-4,5,6,7-tetrahydro-1H-pyrazolo[4,3-c]pyridin-1-yl)piperidin-1-yl)-4-oxobutyl)piperidin-4-yl)methoxy)-3-methyl-2-oxo-2,3-dihydro-1H-benzo[d]imidazol-1-yl)piperidine-2,6-dione] was tested. Which pIC50 did it give?
**A.** 6.49
